US6362369B1, “Phthalic acid diamide derivatives fluorine-containing aniline compounds as starting material, agricultural and horticultural insecticides, and a method for application of the insecticides” (Nihon Nohyaku Co., Ltd., priority 1997, dated 2002)

Assays:
Format in all cases: in vivo
[1] = tested on: rice leafroller (Cnaphalocrocis medinalis); assay: Insecticidal effect on rice leafroller (Test Example 3); conditions: 500 ppm, 25° C., humidity 70%; for Insecticidal effect, Test Example 3: rice lamina immersed; for Insecticidal effect, Test Example 3 / Insecticidal effect on rice leafroller (Test Example 3), judged grade: four days after inoculation; for Insecticidal effect (Test Example 3), judged from mortality / Insecticidal effect on rice leafroller (Test Example 3), judged grade: rice lamina dip; for Insecticidal effect (Test Example 3), judged from mortality: 4 days after inoculation; for Insecticidal effect on rice leafroller (Test Example 3), judged grade: third-instar larvae
Method in brief: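 Groups of 10 third-instar larvae, in triplicate, are placed on air-dried lamina resting on wet filter paper. Incubation runs four days at 25° C with 70% humidity before survivors and dead are tallied.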

[2] = tested on: common cutworm (Spodoptera Litura); assay: Insecticidal effect on common cutworm (Test Example 2); conditions: 500 ppm, 25° C.; for Insecticidal effect, Test Example 2: cabbage leaf immersed; for Insecticidal effect, Test Example 2 / Insecticidal effect on common cutworm (Test Example 2), judged grade: eight days after inoculation; for Insecticidal effect (Test Example 2), judged from mortality / Insecticidal effect on common cutworm (Test Example 2), judged grade: cabbage leaf dip; for Insecticidal effect (Test Example 2), judged from mortality: 8 days after inoculation; for Insecticidal effect on common cutworm (Test Example 2), judged grade: second-instar larvae
Method in brief: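 Insecticidal effect was rated from percent mortality of second-instar larvae exposed to air-dried treatment at 25° C for 8 days.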

[3] = tested on: diamondback moth (Plutella xylostella); assay: Insecticidal effect on diamondback moth (Test Example 1); conditions: for Insecticidal effect, Test Example 1 / Insecticidal effect (Test Example 1), judged from mortality: diamondback moth; for Insecticidal effect (Test Example 1), judged from mortality: judged by the criterion of Test Example 1; for Insecticidal effect on diamondback moth (Test Example 1), judged grade: mortality judged according to the criterion shown in Test Example 1
Method in brief: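 Eggs laid by adult moths on Chinese cabbage seedlings, which were immersed in test solution, air-dried and kept at 25 °C. Hatched insects counted 6 days after immersion and mortality calculated, with effect graded by criterion; triplicate groups of 10 insects.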

[4] = rice leafroller third-instar larvae
[5] = common cutworm second-instar larvae
[6] = mortality judged by criterion of Test Example 1
[7] = third-instar larvae of rice leafroller
[8] = second-instar larvae of common cutworm
[9] = judged by the mortality criterion of Test Example 1

CCCN(C)C(=O)c1c(I)cccc1C(=O)Nc1ccc(C(F)(F)C(F)(F)F)cc1C [compound 1069]
Insecticidal effect, Test Example 3 [1, 4]: A (100) | Insecticidal effect, Test Example 2 [2, 5]: A (100) | Insecticidal effect, Test Example 1 [3, 6]: A (100)

Cc1cc(C(F)(F)C(F)(F)F)ccc1NC(=O)c1cccc(Cl)c1C(=O)NC(C)(C)C#Cc1c(Cl)cccc1Cl [compound 1586]
Insecticidal effect (Test Example 3), judged from mortality [1, 7]: A (100) | Insecticidal effect (Test Example 2), judged from mortality [2, 8]: C (89-80) | Insecticidal effect (Test Example 1), judged from mortality [3]: A (100)

CSc1cc(NC(=O)c2cccc(I)c2C(=O)NC(C)C)ccc1C(F)(C(F)(F)F)C(F)(F)F [compound 1766]
Insecticidal effect (Test Example 3), judged from mortality [1, 7]: A (100) | Insecticidal effect (Test Example 2), judged from mortality [2, 8]: A (100) | Insecticidal effect (Test Example 1), judged from mortality [3]: A (100)

Cc1cc(Oc2ccc(C(F)(F)F)cn2)ccc1NC(=O)c1cccc(Cl)c1C(=O)NC(C)C [compound 158]
Insecticidal effect, Test Example 3 [1, 7]: A (100) | Insecticidal effect, Test Example 2 [2, 8]: A (100) | Insecticidal effect, Test Example 1 [3, 9]: A (100)

CC(C)NC(=O)c1c(C(=O)Nc2ccc(I)cc2)cccc1[N+](=O)[O-] [compound 595]
Insecticidal effect on rice leafroller (Test Example 3), judged grade [1]: A (100) | Insecticidal effect on common cutworm (Test Example 2), judged grade [2]: A (100) | Insecticidal effect on diamondback moth (Test Example 1), judged grade [3]: A (100)

CC(C)NC(=O)c1ccccc1C(=O)Nc1ccc(OC(F)(F)F)cc1Br [compound 48]
Insecticidal effect, Test Example 3 [1, 7]: A (100) | Insecticidal effect, Test Example 2 [2, 8]: B (99-90) | Insecticidal effect, Test Example 1 [3, 9]: A (100)

CC(C)NC(=O)c1c(Cl)cccc1C(=O)Nc1ccc(SC(F)(F)C(F)F)cc1 [compound 102]
Insecticidal effect, Test Example 3 [1, 7]: A (100) | Insecticidal effect, Test Example 2 [2, 8]: D (79-50) | Insecticidal effect, Test Example 1 [3, 9]: A (100)

Cc1cc(C(F)(F)F)ccc1NC(=O)c1cccc(Cl)c1C(=O)NC(C)C [compound 127]
Insecticidal effect, Test Example 3 [1, 7]: A (100) | Insecticidal effect, Test Example 2 [2, 8]: A (100) | Insecticidal effect, Test Example 1 [3, 9]: A (100)

CC(C)NC(=O)c1c(I)cccc1C(=O)Nc1ccc(F)c(F)c1 [compound 360]
Insecticidal effect, Test Example 3 [1, 7]: A (100) | Insecticidal effect, Test Example 2 [2, 8]: D (79-50) | Insecticidal effect, Test Example 1 [3, 9]: A (100)

Cc1c(Cl)cccc1NC(=O)c1cccc(Br)c1C(=O)NC(C)C [compound 266]
Insecticidal effect, Test Example 3 [1, 7]: A (100) | Insecticidal effect, Test Example 2 [2, 8]: A (100) | Insecticidal effect, Test Example 1 [3, 9]: A (100)

C#CC(C)(C)NC(=O)c1c(I)cccc1C(=O)Nc1ccc(C(F)(F)C(F)(F)F)cc1C [compound 1629]
Insecticidal effect (Test Example 3), judged from mortality [1, 7]: A (100) | Insecticidal effect (Test Example 2), judged from mortality [2, 8]: A (100) | Insecticidal effect (Test Example 1), judged from mortality [3]: A (100)

Cc1cc(OC(F)(F)C(F)Cl)ccc1NC(=O)c1cccc([N+](=O)[O-])c1C(=O)NC(C)C (stereo not drawn) [compound 714]
Insecticidal effect on rice leafroller (Test Example 3), judged grade [1]: A (100) | Insecticidal effect on common cutworm (Test Example 2), judged grade [2]: A (100) | Insecticidal effect on diamondback moth (Test Example 1), judged grade [3]: A (100)

CCN(CC)C(=O)c1c(I)cccc1C(=O)Nc1ccc(OC(F)(F)F)cc1 [compound 1534]
Insecticidal effect (Test Example 3), judged from mortality [1, 7]: A (100) | Insecticidal effect (Test Example 2), judged from mortality [2, 8]: A (100) | Insecticidal effect (Test Example 1), judged from mortality [3]: A (100)

Cc1cc(OC(F)(F)F)ccc1NC(=O)c1cc(F)c(F)cc1C(=O)NC(C)C [compound 1287]
Insecticidal effect, Test Example 3 [1, 4]: A (100) | Insecticidal effect, Test Example 2 [2, 5]: A (100) | Insecticidal effect, Test Example 1 [3, 6]: A (100)
